Patent publication US11154529B2, “Phosphaplatin liquid formulations” (Phosplatin Therapeutics Inc., priority 2016, dated 2021)

Test: Ready-to-use formulation stability at 25° C./60% RH, 5 mg/mL (R,R)-pyrodach-2 in 10 mM Potassium Phosphate Buffer at pH 7.2, 10 mL vials
Format: physicochemical
Protocol: A scalable and commercially viable process for the manufacture of a ready-to-use formulation of (R,R)-pyrodach-2 in 10 mM buffer adjusted to a pH of 7.0-7.5 comprises the steps of: a) preparing a 10 mM aqueous solution of buffer; b) adding sufficient hydroxide base to effect neutralization of the added (R,R)-pyrodach-2 to reach a pH of about 7; c) adding (R,R)-pyrodach-2 and allowing it to dissolve; d) if necessary adding additional hydroxide to adjust the pH into a range of about 7.0-7.5; and e) filtering the solution under sterile conditions, filling the solution into glass vials, and covering it with a stopper and/or a cap. Stability data on two large batches of 5 mg/mL (R,R)-pyrodach-2 in 10 mM potassium phosphate buffer were generated. One such batch at pH=7.2 was evaluated at both 25° C./60% RH and refrigerated (2-8° C.) conditions, with data summarized in Table 4 and Table 5, respectively. […] Similar observations have been made for the ready-to-use liquid formulation at pH7.4, as illustrated in Table 6 and Table 7.
• Transfer 4564.6 mg±0.5 mg of potassium phosphate dibasic, trihydrate to a 2-L volumetric flask. • Fill flask to approximately 75% volume with water, swirl as needed to dissolve all solids. • Volumetrically transfer 32.0 mL of 1N KOH to flask. • Dilute flask to volume with water and mix well. • Record pH of final solution. This is the diluent. • Transfer 7653.1 mg±0.5 mg of (R,R)-pyrodach-2 to a compounding vessel. • Transfer 1500 mL of the diluent to the vessel and stir to dissolve solids. • Record pH of final solution. • Pass entire solution through a 0.22 μm sterile filter membrane into a sterile collection vessel. • Calculate (R,R)-pyrodach-2 solution concentration
To a […] glass beaker equipped with mechanical mixer was add 24645.5 g of sterile water for injection. With agitation 47.03 gm of dibasic potassium phosphate USP was added and the solids allowed to dissolve. To the stirred solution was added 253.8 gm of 1.00 N potassium hydroxide. Sterile water for injection USP (900.0 gm) was used as a rinse to facilitate both additions. With vigorous agitation, (R,R)-pyrodach-2 (201.87 gm) was slowly added and agitation continued until all of the solids dissolved. Sterile water for injection USP (900.0 gm) was used as a rinse to facilitate the addition. The pH was determined to be 6.7. A total of 85 mL of 1.00 N potassium hydroxide was added in 5.0 mL aliquots to adjust the pH to 7.3. The solution was sterile filtered through 0.22μ Millipore Millipack filter and aseptically filled, 10 ml top a vial in 10 mL in 10 cc Wheaton clear molded vails, stoppered with a 20 mm stopper and crimp seal capped.

Compound: O=P1(O)OP(=O)(O)[O][Pt]2([NH][C@@H]3CCCC[C@H]3[NH]2)[O]1 (stereo partly drawn) [(R,R)-pyrodach-2, (R,R)-trans-1,2-cyclohexanediamine-(dihydrogenpyrophosphato)platinum(II)]
- (DACH) Pt-diaquo (~RRT 0.3) (1 Month): 0.15%
- (DACH) Pt-monoaquo (~RRT 0.7) (1 Month): 0.75%
- Assay (Potency) (1 Month): 96.5%
- PT-112 Dimer (~RRT 4.0) (1 Month): 0.33%
- RRT 0.58 (1 Month): 0.13%
- RRT 0.67 (1 Month): 0.06%
- RRT 3.1-3.2 (1 Month): 0.22%
- Total Related Substances (1 Month): 2%
- pH (1 Month): 7.2
- (DACH) Pt-diaquo (~RRT 0.3) (2 Month): 0.09%
- (DACH) Pt-monoaquo (~RRT 0.7) (2 Month): 0.96%
- Assay (Potency) (2 Month): 99.5%
- PT-112 Dimer (~RRT 4.0) (2 Month): 0.36%
- RRT 0.50 (2 Month): 0.05%
- RRT 0.58 (2 Month): 0.15%
- RRT 0.67 (2 Month): 0.09%
- RRT 3.1-3.2 (2 Month): 0.32%
- RRT 3.65 (2 Month): 0.08%
- Total Related Substances (2 Month): 2%
- pH (2 Month): 7.2
- (DACH) Pt-diaquo (~RRT 0.3) (3 Month): 0.19%
- (DACH) Pt-monoaquo (~RRT 0.7) (3 Month): 0.73%
- Assay (Potency) (3 Month): 98.2%
- PT-112 Dimer (~RRT 4.0) (3 Month): 0.37%
- RRT 0.50 (3 Month): 0.08%
- RRT 0.58 (3 Month): 0.18%
- RRT 0.67 (3 Month): 0.06%
- RRT 3.1-3.2 (3 Month): 0.37%
- RRT 3.65 (3 Month): 0.11%
- Total Related Substances (3 Month): 2%
- pH (3 Month): 7.3
- (DACH) Pt-diaquo (~RRT 0.3) (4 Month): 0.13%
- (DACH) Pt-monoaquo (~RRT 0.7) (4 Month): 1.05%
- Assay (Potency) (4 Month): 97.9%
- PT-112 Dimer (~RRT 4.0) (4 Month): 0.36%
- RRT 0.50 (4 Month): 0.09%
- RRT 0.58 (4 Month): 0.20%
- RRT 0.67 (4 Month): 0.07%
- RRT 3.1-3.2 (4 Month): 0.38%
- RRT 3.46 (4 Month): 0.05%
- RRT 3.65 (4 Month): 0.13%
- Total Related Substances (4 Month): 2%
- pH (4 Month): 7.1
- (DACH) Pt-diaquo (~RRT 0.3) (6 Month): 0.15%
- (DACH) Pt-monoaquo (~RRT 0.7) (6 Month): 1.03%
- Assay (Potency) (6 Month): 97.5%
- PT-112 Dimer (~RRT 4.0) (6 Month): 0.37%
- RRT 0.50 (6 Month): 0.15%
- RRT 0.58 (6 Month): 0.21%
- RRT 0.67 (6 Month): 0.07%
- RRT 0.86 (6 Month): 0.05%
- RRT 3.1-3.2 (6 Month): 0.40%
- RRT 3.65 (6 Month): 0.24%
- RRT 4.97 (6 Month): 0.05%
- Total Related Substances (6 Month): 3%
- pH (6 Month): 7.2
- Particulate Matter (Light Obscuration) (6 Month, first value): 20 particles particles per container
- Particulate Matter (Light Obscuration) (6 Month, second value): 3 particles particles per container
- (DACH) Pt-diaquo (~RRT 0.3) (9 Month): 0.16%
- (DACH) Pt-monoaquo (~RRT 0.7) (9 Month): 1.10%
- Assay (Potency) (9 Month): 96.8%
- PT-112 Dimer (~RRT 4.0) (9 Month): 0.39%
- RRT 0.50 (9 Month): 0.19%
- RRT 0.58 (9 Month): 0.27%
- RRT 0.67 (9 Month): 0.10%
- RRT 0.86 (9 Month): 0.05%
- RRT 3.1-3.2 (9 Month): 0.30%
- RRT 3.65 (9 Month): 0.39%
- RRT 4.97 (9 Month): 0.08%
- Total Related Substances (9 Month): 3%
- pH (9 Month): 7.2
- (DACH) Pt-diaquo (~RRT 0.3) (12 Month): 0.18%
- (DACH) Pt-monoaquo (~RRT 0.7) (12 Month): 0.91%
- Assay (Potency) (12 Month): 96.8%
- PT-112 Dimer (~RRT 4.0) (12 Month): 0.33%
- RRT 0.41 (12 Month): 0.05%
- RRT 0.50 (12 Month): 0.26%
- RRT 0.58 (12 Month): 0.26%
- RRT 0.67 (12 Month): 0.13%
- RRT 0.86 (12 Month): 0.05%
- RRT 3.1-3.2 (12 Month): 0.44%
- RRT 3.65 (12 Month): 0.52%
- RRT 4.97 (12 Month): 0.20%
- Total Related Substances (12 Month): 3%
- pH (12 Month): 7.2
- Particulate Matter (Light Obscuration) (12 Month, first value): 36 particles particles per container
- Particulate Matter (Light Obscuration) (12 Month, second value): 2 particles particles per container
- (DACH) Pt-diaquo (~RRT 0.3) (15 Month): 0.14%
- (DACH) Pt-monoaquo (~RRT 0.7) (15 Month): 0.84%
- Assay (Potency) (15 Month): 98.1%
- PT-112 Dimer (~RRT 4.0) (15 Month): 0.29%
- RRT 0.41 (15 Month): 0.07%
- RRT 0.50 (15 Month): 0.37%
- RRT 0.58 (15 Month): 0.26%
- RRT 0.67 (15 Month): 0.07%
- RRT 3.1-3.2 (15 Month): 0.41%
- RRT 3.65 (15 Month): 0.63%
- RRT 4.97 (15 Month): 0.28%
- Total Related Substances (15 Month): 3%
- pH (15 Month): 7.3
- (DACH) Pt-diaquo (~RRT 0.3) (18 Month): 0.14%
- (DACH) Pt-monoaquo (~RRT 0.7) (18 Month): 1.04%
- Assay (Potency) (18 Month): 99.0%
- PT-112 Dimer (~RRT 4.0) (18 Month): 0.30%
- RRT 0.41 (18 Month): 0.06%
- RRT 0.50 (18 Month): 0.36%
- RRT 0.58 (18 Month): 0.29%
- RRT 0.67 (18 Month): 0.11%
- RRT 0.86 (18 Month): 0.14%
- RRT 3.1-3.2 (18 Month): 0.40%
- RRT 3.65 (18 Month): 0.75%
- RRT 4.97 (18 Month): 0.43%
- Total Related Substances (18 Month): 4%
- pH (18 Month): 7.2
- (DACH) Pt-diaquo (~RRT 0.3) (24 Month): 0.15%
- (DACH) Pt-monoaquo (~RRT 0.7) (24 Month): 0.83%
- Assay (Potency) (24 Month): 97.5%
- PT-112 Dimer (~RRT 4.0) (24 Month): 0.36%
- RRT 0.41 (24 Month): 0.12%
- RRT 0.46 (24 Month): 0.10%
- RRT 0.50 (24 Month): 0.70%
- RRT 0.58 (24 Month): 0.17%
- RRT 0.67 (24 Month): 0.07%
- RRT 3.1-3.2 (24 Month): 0.41%
- RRT 3.46 (24 Month): 0.07%
- RRT 3.65 (24 Month): 1.24%
- RRT 4.97 (24 Month): 0.73%
- Total Related Substances (24 Month): 5%
- pH (24 Month): 7.2
- Particulate Matter (Light Obscuration) (24 Month, first value): 81 particles particles per container
- Particulate Matter (Light Obscuration) (24 Month, second value): 4 particles particles per container
- (DACH) Pt-diaquo (~RRT 0.3) (Initial): 0.16%
- (DACH) Pt-monoaquo (~RRT 0.7) (Initial): 0.98%
- Assay (Potency) (Initial): 99.8%
- PT-112 Dimer (~RRT 4.0) (Initial): 0.19%
- RRT 0.58 (Initial): 0.13%
- RRT 0.67 (Initial): 0.05%
- Total Related Substances (Initial): 2%
- pH (Initial): 7.2
- Particulate Matter (Light Obscuration) (Initial, first value): 219 particles particles per container
- Particulate Matter (Light Obscuration) (Initial, second value): 11 particles particles per container
